According to US20230212122A1, “MITOCHONDRIAL TARGETING COMPOUNDS FOR THE TREATMENT OF ASSOCIATED DISEASES” (The Regents of the University of Michigan, priority 2020, published 2023):

Tested on: UM16 cell line
Assay: GSEA of proteomics data ([…], KEGG pathways)
Format: cell-based
Settings: for ES / NES: 5 μM, 24 hours
From the text: Several proteins participating in energy metabolism were dramatically changed.

[1] = HALLMARK_ADIPOGENESIS, FDR q-val 0.644
[2] = HALLMARK_ALLOGRAFT_REJECTION, FDR q-val 0.521
[3] = HALLMARK_ANDROGEN_RESPONSE, FDR q-val 0.915
[4] = HALLMARK_APOPTOSIS, FDR q-val 0.666
[5] = HALLMARK_BILE_ACID_METABOLISM, FDR q-val 0.245
[6] = HALLMARK_CHOLESTEROL_HOMEOSTASIS, FDR q-val 0.314
[7] = HALLMARK_COAGULATION, FDR q-val 0.004
[8] = HALLMARK_COMPLEMENT, FDR q-val 0.425
[9] = HALLMARK_DNA_REPAIR, FDR q-val 0.454
[10] = HALLMARK_E2F_TARGETS, FDR q-val 0.077
[11] = HALLMARK_EPITHELIAL_MESENCHYMAL_TRANSITION, FDR q-val 0.456
[12] = HALLMARK_G2M_CHECKPOINT, FDR q-val 0.107
[13] = HALLMARK_GLYCOLYSIS, FDR q-val 0.489
[14] = HALLMARK_HEME_METABOLISM, FDR q-val 0.552
[15] = HALLMARK_HYPOXIA, FDR q-val 0.003
[16] = HALLMARK_IL2_STAT5_SIGNALING, FDR q-val 0.552
[17] = HALLMARK_MITOTIC_SPINDLE, FDR q-val 0.529
[18] = HALLMARK_MYC_TARGETS_V1, FDR q-val 0.006
[19] = HALLMARK_MYC_TARGETS_V2, FDR q-val 0.264
[20] = HALLMARK_MYOGENESIS, FDR q-val 0.467
[21] = HALLMARK_OXIDATIVE_PHOSPHORYLATION, FDR q-val 0.711
[22] = HALLMARK_P53_PATHWAY, FDR q-val 0.146
[23] = HALLMARK_PEROXISOME, FDR q-val 0.645
[24] = HALLMARK_PROTEIN_SECRETION, FDR q-val 0.862
[25] = HALLMARK_SPERMATOGENESIS, FDR q-val 0.851
[26] = HALLMARK_TGF_BETA_SIGNALING, FDR q-val 0.771
[27] = HALLMARK_TNFA_SIGNALING_VIA_NFKB, FDR q-val 0.457
[28] = HALLMARK_UNFOLDED_PROTEIN_RESPONSE, FDR q-val 0.070
[29] = HALLMARK_UV_RESPONSE_DN, FDR q-val 0.510
[30] = HALLMARK_XENOBIOTIC_METABOLISM, FDR q-val 0.488
[31] = KEGG_ADIPOCYTOKINE_SIGNALING_PATHWAY, FDR q-val 0.903
[32] = KEGG_ARGININE_AND_PROLINE_METABOLISM, FDR q-val 0.668
[33] = KEGG_B_CELL_RECEPTOR_SIGNALING_PATHWAY, FDR q-val 0.813
[34] = KEGG_CARDIAC_MUSCLE_CONTRACTION, FDR q-val 0.900
[35] = KEGG_CYTOSOLIC_DNA_SENSING_PATHWAY, FDR q-val 0.907
[36] = KEGG_FC_EPSILON_RI_SIGNALING_PATHWAY, FDR q-val 0.825
[37] = KEGG_GAP_JUNCTION, FDR q-val 0.898
[38] = KEGG_GLYCEROLIPID_METABOLISM, FDR q-val 0.663
[39] = KEGG_GLYCOLYSIS_GLUCONEOGENESIS, FDR q-val 0.889
[40] = KEGG_INOSITOL_PHOSPHATE_METABOLISM, FDR q-val 0.852
[41] = KEGG_INSULIN_SIGNALING_PATHWAY, FDR q-val 0.872
[42] = KEGG_LYSINE_DEGRADATION, FDR q-val 0.914
[43] = KEGG_MELANOGENESIS, FDR q-val 0.638
[44] = KEGG_NON_SMALL_CELL_LUNG_CANCER, FDR q-val 0.894
[45] = KEGG_NUCLEOTIDE_EXCISION_REPAIR, FDR q-val 0.829
[46] = KEGG_PATHWAYS_IN_CANCER, FDR q-val 0.858
[47] = KEGG_PEROXISOME, FDR q-val 0.839
[48] = KEGG_PROP_ANOATE_METABOLISM, FDR q-val 0.889
[49] = KEGG_PURINE_METABOLISM, FDR q-val 0.909
[50] = KEGG_VIRAL_MYOCARDITIS, FDR q-val 0.832

CCOC(=O)[C@@H]1CCCN(S(=O)(=O)c2ccc(S(=O)(=O)N(CC)CC)cc2)C1 [DX2-201, ethyl (R)-1-((4-(N,N-diethylsulfamoyl)phenyl)sulfonyl)piperidine-3-carboxylate]
TCA cycle (proteomic results): suppressed | hypoxia pathways, bile acid metabolism, cholesterol homoeostasis and glycolysis (proteomic results): upregulated | ES [1]: 0.317 | NES [1]: 1.025 | ES [2]: −0.287 | NES [2]: −1.082 | ES [3]: 0.259 | NES [3]: 0.760 | ES [4]: 0.335 | NES [4]: 1.042 | ES [5]: 0.523 | NES [5]: 1.465 | ES [6]: 0.493 | NES [6]: 1.407 | ES [7]: 0.636 | NES [7]: 1.813 | ES [8]: 0.401 | NES [8]: 1.235 | ES [9]: 0.381 | NES [9]: 1.239 | ES [10]: −0.349 | NES [10]: −1.559 | ES [11]: 0.449 | NES [11]: 1.312 | NES (HALLMARK_ESTROGEN_RESPONSE_EARLY, FDR q-val 0.813): 0.929 | ES [12]: −0.313 | NES [12]: −1.421 | ES [13]: 0.399 | NES [13]: 1.281 | ES [14]: 0.376 | NES [14]: 1.150 | ES [15]: 0.595 | NES [15]: 1.851 | ES [16]: 0.384 | NES [16]: 1.176 | ES [17]: 0.348 | NES [17]: 1.170 | ES [18]: −0.424 | NES [18]: −1.975 | ES [19]: −0.329 | NES [19]: −1.215 | ES [20]: −0.285 | NES [20]: −1.077 | ES [21]: −0.214 | NES [21]: −0.938 | ES [22]: −0.323 | NES [22]: −1.338 | ES [23]: 0.347 | NES [23]: 1.037 | ES [24]: −0.207 | NES [24]: −0.842 | ES [25]: −0.229 | NES [25]: −0.803 | ES [26]: −0.296 | NES [26]: −0.944 | ES [27]: 0.448 | NES [27]: 1.335 | ES [28]: −0.372 | NES [28]: −1.517 | ES [29]: 0.433 | NES [29]: 1.256 | ES [30]: 0.393 | NES [30]: 1.244 | ES [31]: 0.390 | NES [31]: 1.046 | NES (KEGG_ANTIGEN_PROCESSING_AND_PRESENTATION, FDR q-val 0.792): −0.917 | ES [32]: 0.543 | NES [32]: 1.389 | NES (KEGG_BASAL_TRANSCRIPTION_FACTORS, FDR q-val 0.687): −1.121 | ES [33]: 0.504 | NES [33]: 1.432 | ES [34]: 0.469 | NES [34]: 1.177 | NES (KEGG_CELL_CYCLE, FDR q-val 0.828): −0.995 | NES (KEGG_CITRATE_CYCLE_TCA_CYCLE, FDR q-val 0.422): −1.416 | ES [35]: 0.469 | NES [35]: 1.166 | NES (KEGG_DNA_REPLICATION, FDR q-val 0.844): −0.919 | NES (KEGG_ERBB_SIGNALING_PATHWAY, FDR q-val 0.821): 1.410 | ES [36]: 0.593 | NES [36]: 1.623 | ES [37]: 0.386 | NES [37]: 1.041 | ES [38]: 0.572 | NES [38]: 1.376 | ES [39]: 0.394 | NES [39]: 1.086 | ES [40]: 0.520 | NES [40]: 1.277 | ES [41]: 0.352 | NES [41]: 1.077 | ES [42]: 0.381 | NES [42]: 1.007 | ES [43]: 0.534 | NES [43]: 1.369 | ES [44]: 0.415 | NES [44]: 1.092 | ES [45]: 0.469 | NES [45]: 1.271 | NES (KEGG_N_GLYCAN_BIOSYNTHESIS, FDR q-val 0.658): −1.160 | NES (KEGG_PARKINSONS_DISEASE, FDR q-val 0.702): −1.180 | ES [46]: 0.324 | NES [46]: 1.074 | ES [47]: 0.459 | NES [47]: 1.302 | ES [48]: 0.424 | NES [48]: 1.079 | NES (KEGG_PROTEASOME, FDR q-val 0.605): −1.425 | NES (KEGG_PROTEIN_EXPORT, FDR q-val 0.625): −1.116 | ES [49]: 0.331 | NES [49]: 1.023 | NES (KEGG_RIBOSOME, FDR q-val 0.003): −2.132 | NES (KEGG_RNA_DEGRADATION, FDR q-val 0.672): −1.228 | NES (KEGG_SPLICEOSOME, FDR q-val 0.541): −1.319 | NES (KEGG_VIBRIO_CHOLERAE_INFECTION, FDR q-val 0.754): −1.044 | ES [50]: 0.497 | NES [50]: 1.292
